{
  "source": "patent US11285127B2",
  "about": "“Compositions and methods for lowering triglycerides without raising LDL-C levels in a subject on concomitant statin therapy” (Amarin Pharmaceuticals Ireland Limited, priority 2013, dated 2022)",
  "key": {"[1]": {"test_system": "patients with fasting triglyceride levels >200 mg/dl and <500 mg/dl despite statin therapy", "test": "12-week study: lipoprotein associated phospholipase A2 (Lp-PLA2)", "assay_type": "in vivo, human", "conditions": "MITT; for Lp-PLA2 Percent change from Baseline Median (IQR): Week 12 endpoint; for Lp-PLA2 Difference from placebo Estimated median: percent change from baseline to Week 12 endpoint", "description": "(§1) Parameters (a)-(z) can be measured in accordance with any clinically acceptable methodology. For example, triglycerides, total cholesterol, HDL-C and fasting blood sugar can be sample from serum and analyzed using standard photometry techniques. VLDL-TG, LDL-C and VLDL-C can be calculated or determined using serum lipoprotein fractionation by preparative ultracentrifugation and subsequent quantitative analysis by refractometry or by analytic ultracentrifugal methodology. Apo A1, Apo B and hsCRP can be determined from serum using standard nephelometry techniques. Lipoprotein (a) can be determined from serum using standard turbidimetric immunoassay techniques. LDL particle number and particle size can be determined using nuclear magnetic resonance (NMR) spectrometry. Remnants lipoproteins and LDL-phospholipase A2 can be determined from EDTA plasma or serum and serum, respectively, using enzymatic immunoseparation techniques. Oxidized LDL, intercellular adhesion molecule-1 and interleukin-2 levels can be determined from serum using standard enzyme immunoassay techniques. These techniques are described in detail in standard textbooks, for example Tietz Fundamentals of Clinical Chemistry, 6th Ed. (Burtis, Ashwood and Borter Eds.), WB Saunders Company.\n(§2) A multi-center, placebo-controlled, randomized, double-blind, 12-week study was performed to evaluate the efficacy and safety of >96% E-EPA in patients with fasting triglyceride levels >200 mg/dl and <500 mg/dl despite statin therapy (the mean of two qualifying entry values needed to be >185 mg/dl and at least one of the values needed to be >200 mg/dl). The primary objective of the study was to determine the efficacy of >96% E-EPA 2 g daily and 4 g daily, compared to placebo, in lowering fasting TG levels in patients with high risk for cardiovascular disease and with fasting TG levels 200 mg/dl and <500 mg/dl, despite treatment to LDL-C goal on statin therapy.\n(§3) The secondary objectives of this study were the following: • 1. To determine the safety and tolerability of >96% E-EPA 2 g daily and 4 g daily; • 2. To determine the effect of >96% E-EPA on lipid and apolipoprotein profiles including total cholesterol (TC), non-high-density lipoprotein cholesterol (non-HDL-C), low density lipoprotein cholesterol (LDL-C), high density lipoprotein cholesterol (HDL-C), and […]; • 3. To determine the effect of >96% E-EPA on lipoprotein associated phospholipase A2 (Lp-PLA2) from baseline to week 12; • 4. To determine the effect of >96% E-EPA on low-density lipoprotein (LDL) particle number and size; • 5. To determine the effect of >96% E-EPA on oxidized LDL; • 6. To determine the effect of >96% E-EPA on fasting plasma glucose (FPG) and hemoglobin A1c (HbA1c); • 7. To determine the effect of >96% E-EPA on insulin resistance; • 8. To determine the effect of >96% E-EPA on high-sensitivity C-reactive protein (hsCRP); • 9. To determine the effects of >96% E-EPA 2 g daily and 4 g daily on the incorporation of fatty acids into red blood cell membranes and into plasma phospholipids; • 10. To explore the relationship between baseline fasting TG levels and the reduction in fasting TG levels; and • 11. To explore the relationship between changes of fatty acid concentrations in plasma and red blood cell membranes, and the reduction in fasting TG levels.\n(§4) The primary efficacy variable for the double-blind treatment period was percent change in TG from baseline to Week 12 endpoint. […]"}, "[2]": {"test_system": "patients with fasting triglyceride levels >200 mg/dl and <500 mg/dl despite statin therapy", "test": "12-week study: inflammatory biomarkers (ICAM-1, interleukin, PAI-1, hsCRP)", "assay_type": "in vivo, human", "conditions": "MITT; for ICAM-1, Difference from placebo, Estimated median / IL-6, Difference from placebo, Estimated median / PAI-1, Difference from placebo, Estimated median / hsCRP, Difference from placebo, Estimated median: Week 12; for hsCRP, Difference from placebo, Estimated median: post-hoc, median percent change from baseline; for ICAM-1, Week 12 EP Median (IQR) / IL-6, Week 12 EP Median (IQR) / PAI-1, Week 12 EP Median (IQR) / hsCRP, Week 12 EP Median (IQR): Week 12 endpoint (LOCF); for hsCRP, Week 12 EP Median (IQR) / hsCRP, Median % Chg from BL (IQR): post-hoc analysis; for ICAM-1, change from Baseline, Median (IQR) / IL-6, change from Baseline, Median (IQR) / PAI-1, change from Baseline, Median (IQR) / hsCRP, Median % Chg from BL (IQR): baseline to Week 12", "description": "as §1, §2, §3, §4"}, "[3]": {"conditions": "AMR101 2 g/d + statin vs placebo"}, "[4]": {"conditions": "AMR101 4 g/d + statin vs placebo"}},
  "data": [
    {"smiles": "CC/C=C\\C/C=C\\C/C=C\\C/C=C\\C/C=C\\CCCC(=O)OCC", "note": "[AMR101, ethyl eicosapentaenoate]", "values": [
      {"measurement": "Lp-PLA2 Week 12 EP Median (IQR)", "setting": "[1]; AMR101 2 g/d + statin", "result": "183.5 (57.5) ng/mL"},
      {"measurement": "Lp-PLA2 Percent change from Baseline Median (IQR)", "setting": "[1]; AMR101 2 g/d + statin", "result": "−1.8 (23.1) %"},
      {"measurement": "Lp-PLA2 Difference from placebo Estimated median", "setting": "[1]; AMR101 2 g/d + statin", "result": "−8.0", "unit": "%"},
      {"measurement": "Lp-PLA2 Week 12 EP Median (IQR)", "setting": "[1]; AMR101 4 g/d + statin", "result": "160.0 (57.0) ng/mL"},
      {"measurement": "Lp-PLA2 Percent change from Baseline Median (IQR)", "setting": "[1]; AMR101 4 g/d + statin", "result": "−12.8 (18.5) %"},
      {"measurement": "Lp-PLA2 Difference from placebo Estimated median", "setting": "[1]; AMR101 4 g/d + statin", "result": "−19.0", "unit": "%"},
      {"measurement": "ICAM-1, Difference from placebo, Estimated median", "setting": "[2]; [3]", "result": -6.0, "unit": "ng/mL"},
      {"measurement": "IL-6, Difference from placebo, Estimated median", "setting": "[2]; [3]", "result": 0.1, "unit": "pg/mL"},
      {"measurement": "PAI-1, Difference from placebo, Estimated median", "setting": "[2]; [3]", "result": 12.1, "unit": "ng/mL"},
      {"measurement": "hsCRP, Difference from placebo, Estimated median", "setting": "[2]; [3]", "result": "−6.8", "unit": "%"},
      {"measurement": "ICAM-1, Week 12 EP Median (IQR)", "setting": "[2]; AMR101 2 g/d + statin", "result": "268.5 (89.0) ng/mL"},
      {"measurement": "IL-6, Week 12 EP Median (IQR)", "setting": "[2]; AMR101 2 g/d + statin", "result": "2.7 (2.3) pg/mL"},
      {"measurement": "PAI-1, Week 12 EP Median (IQR)", "setting": "[2]; AMR101 2 g/d + statin", "result": "90.3 (67.4) ng/mL"},
      {"measurement": "hsCRP, Week 12 EP Median (IQR)", "setting": "[2]; AMR101 2 g/d + statin", "result": "2.5 (3.4) mg/L"},
      {"measurement": "ICAM-1, change from Baseline, Median (IQR)", "setting": "[2]; AMR101 2 g/d + statin", "result": "1.5 (37.0) ng/mL"},
      {"measurement": "IL-6, change from Baseline, Median (IQR)", "setting": "[2]; AMR101 2 g/d + statin", "result": "0.2 (1.3) pg/mL"},
      {"measurement": "PAI-1, change from Baseline, Median (IQR)", "setting": "[2]; AMR101 2 g/d + statin", "result": "14.6 (38.8) ng/mL"},
      {"measurement": "hsCRP, Median % Chg from BL (IQR)", "setting": "[2]; AMR101 2 g/d + statin", "result": "10.3 (88.6) %"},
      {"measurement": "ICAM-1, Difference from placebo, Estimated median", "setting": "[2]; [4]", "result": -6.0, "unit": "ng/mL"},
      {"measurement": "IL-6, Difference from placebo, Estimated median", "setting": "[2]; [4]", "result": -0.1, "unit": "pg/mL"},
      {"measurement": "PAI-1, Difference from placebo, Estimated median", "setting": "[2]; [4]", "result": 0.6, "unit": "ng/mL"},
      {"measurement": "hsCRP, Difference from placebo, Estimated median", "setting": "[2]; [4]", "result": "−22.0", "unit": "%"},
      {"measurement": "ICAM-1, Week 12 EP Median (IQR)", "setting": "[2]; AMR101 4 g/d + statin", "result": "270.0 (110.0) ng/mL"},
      {"measurement": "IL-6, Week 12 EP Median (IQR)", "setting": "[2]; AMR101 4 g/d + statin", "result": "2.6 (2.1) pg/mL"},
      {"measurement": "PAI-1, Week 12 EP Median (IQR)", "setting": "[2]; AMR101 4 g/d + statin", "result": "85.6 (86.3) ng/mL"},
      {"measurement": "hsCRP, Week 12 EP Median (IQR)", "setting": "[2]; AMR101 4 g/d + statin", "result": "2.0 (3.0) mg/L"},
      {"measurement": "ICAM-1, change from Baseline, Median (IQR)", "setting": "[2]; AMR101 4 g/d + statin", "result": "2.5 (40.0) ng/mL"},
      {"measurement": "IL-6, change from Baseline, Median (IQR)", "setting": "[2]; AMR101 4 g/d + statin", "result": "0.1 (1.8) pg/mL"},
      {"measurement": "PAI-1, change from Baseline, Median (IQR)", "setting": "[2]; AMR101 4 g/d + statin", "result": "−3.1 (45.2) ng/mL"},
      {"measurement": "hsCRP, Median % Chg from BL (IQR)", "setting": "[2]; AMR101 4 g/d + statin", "result": "−2.4 (62.8) %"}
    ]}
  ]
}
